From the supplement of paper PMC10307832

Columns and labels:
Experiment in all cases: relative viability (nuclei count vs DMSO), 5 days (fraction); higher = more cells survive
[1] = compound: CN(NC(=O)CC(=O)NN(C)C(=S)c1ccccc1)C(=S)c1ccccc1 [Elesclomol] + COc1cccc2cc(-c3nc([C@H]4CC[C@H](C(=O)O)CC4)n4ncnc(N)c34)[nH]c12 [OSI-027] (partner 0.5 µM)
Method in brief: (§1)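 Five library-drug doses in √10 steps were combined with a fixed anchor-drug dose, or a single drug was given alone, by pin tool to lung cancer cell lines in 1536-well plates the day after seeding. Nuclei were stained and counted after 5 days. Relative viability is the nuclei count in treated wells over that in vehicle wells, taken as the median of duplicate plates.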

[2] = compound: CN(NC(=O)CC(=O)NN(C)C(=S)c1ccccc1)C(=S)c1ccccc1 [Elesclomol] + Cc1nc(NC(=O)N2CCC[C@H]2C(N)=O)sc1-c1ccnc(C(C)(C)C(F)(F)F)c1 [Alpelisib] (partner 2 µM)
Method in brief: as §1

[3] = compound: CN(NC(=O)CC(=O)NN(C)C(=S)c1ccccc1)C(=S)c1ccccc1 [Elesclomol] + CCNC(=O)c1noc(-c2cc(C(C)C)c(O)cc2O)c1-c1ccc(CN2CCOCC2)cc1 [Luminespib] (partner 0.01 µM)
Method in brief: as §1

[4] = compound: CN(NC(=O)CC(=O)NN(C)C(=S)c1ccccc1)C(=S)c1ccccc1 [Elesclomol] + COc1cc2c(Oc3ccc(NC(=O)C4(C(=O)Nc5ccc(F)cc5)CC4)cc3F)ccnc2cc1OCCCN1CCOCC1 [Foretinib] (partner 0.25 µM)
Method in brief: as §1

[5] = compound: CN(NC(=O)CC(=O)NN(C)C(=S)c1ccccc1)C(=S)c1ccccc1 [Elesclomol] + Nc1ncn([C@H]2C[C@H](O)[C@@H](CO)O2)c(=O)n1 [Decitabine] (partner 2 µM)
Method in brief: as §1

Row | Cell Line | relative viability ([1]; first compound 0.003162 µM) | relative viability ([1]; first compound 0.01 µM) | relative viability ([1]; first compound 0.03162 µM) | relative viability ([1]; first compound 0.1 µM) | relative viability ([2]; first compound 0.003162 µM) | relative viability ([2]; first compound 0.01 µM) | relative viability ([2]; first compound 0.03162 µM) | relative viability ([2]; first compound 0.1 µM) | relative viability ([3]; first compound 0.003162 µM) | relative viability ([3]; first compound 0.01 µM) | relative viability ([3]; first compound 0.03162 µM) | relative viability ([3]; first compound 0.1 µM) | relative viability ([4]; first compound 0.003162 µM) | relative viability ([4]; first compound 0.01 µM) | relative viability ([4]; first compound 0.03162 µM) | relative viability ([4]; first compound 0.1 µM) | relative viability ([5]; first compound 0.003162 µM) | relative viability ([5]; first compound 0.01 µM) | relative viability ([5]; first compound 0.03162 µM) | relative viability ([5]; first compound 0.1 µM)
1 | NCI-H1437 | 0.71 | 0.568 | 0.406 | 0.363 | 0.886 | 0.61 | 0.341 | 0.283 | 0.967 | 0.689 | 0.445 | 0.436 | 1.11 | 0.79 | 0.609 | 0.464 | 0.602 | 0.493 | 0.438 | 0.337
2 | HOP-62 | 0.823 | 0.717 | 0.701 | 0.316 | 1.05 | 0.712 | 0.797 | 0.113 | 0.877 | 0.892 | 0.962 | 0.554 | 1.12 | 0.948 | 0.677 | 0.349 | 0.189 | 0.231 | 0.214 | 0.137
3 | EPLC-272H | 0.295 | – | 0.304 | 0.138 | 1.07 | – | 0.861 | 0.249 | 0.333 | – | 0.576 | 0.125 | 0.67 | – | 0.672 | 0.0988 | 0.35 | 0.134 | 0.0913 | 0.103
4 | COR-L 105 | 0.667 | 0.365 | 0.27 | 0.143 | 1.11 | 0.712 | 0.409 | 0.256 | 0.721 | 0.161 | 0.307 | 0.164 | 0.985 | 0.698 | 0.44 | 0.176 | 0.666 | 0.465 | 0.337 | 0.303
5 | NCI-H2009 | 0.448 | 0.131 | 0.126 | 0.0949 | 1.21 | 0.885 | 0.458 | 0.14 | 0.977 | 0.494 | 0.167 | 0.116 | 1.2 | 0.97 | 0.207 | 0.171 | 0.425 | 0.245 | 0.173 | 0.118
6 | NCI-H23 | 0.66 | 0.298 | 0.601 | 0.312 | 0.662 | – | 0.491 | 0.122 | 0.171 | 0.17 | 0.154 | 0.164 | 0.971 | 1.03 | 0.746 | 0.247 | 0.338 | 0.338 | 0.213 | 0.147
7 | NCI-H727 | 0.641 | 0.426 | 0.394 | 0.251 | 0.545 | 0.258 | 0.117 | 0.0342 | 0.388 | 0.478 | 0.22 | 0.123 | 0.745 | 0.611 | 0.526 | 0.317 | 0.98 | 0.836 | 0.847 | 0.528
8 | NCI-H1355 | 0.448 | 0.266 | 0.27 | 0.186 | 0.832 | 0.636 | 0.466 | 0.16 | 0.713 | 0.623 | 0.413 | 0.171 | 0.951 | 0.894 | 0.514 | 0.207 | 0.352 | 0.336 | 0.268 | 0.2
